Measurements: ChEMBL document CHEMBL1136282, “Design and synthesis of small chemical inhibitors containing different scaffolds for lck SH2 domain” (Bioorg Med Chem Lett, 2003)
Square brackets hold non-standard residues; d marks the D form. Peptide text beside a SMILES is read from it. pY = N[C@@H](Cc1ccc(OP(=O)(O)O)cc1)C(=O)O

What follows are molecules tested against Tyrosine-protein kinase Lck (Homo sapiens, UniProt P06239) (assay: Inhibition of binding to p56 Lck tyrosine kinase SH2 domain).
Tyrosine-protein kinase Lck, sequence (P06239 whole entry, the tested form may be a part): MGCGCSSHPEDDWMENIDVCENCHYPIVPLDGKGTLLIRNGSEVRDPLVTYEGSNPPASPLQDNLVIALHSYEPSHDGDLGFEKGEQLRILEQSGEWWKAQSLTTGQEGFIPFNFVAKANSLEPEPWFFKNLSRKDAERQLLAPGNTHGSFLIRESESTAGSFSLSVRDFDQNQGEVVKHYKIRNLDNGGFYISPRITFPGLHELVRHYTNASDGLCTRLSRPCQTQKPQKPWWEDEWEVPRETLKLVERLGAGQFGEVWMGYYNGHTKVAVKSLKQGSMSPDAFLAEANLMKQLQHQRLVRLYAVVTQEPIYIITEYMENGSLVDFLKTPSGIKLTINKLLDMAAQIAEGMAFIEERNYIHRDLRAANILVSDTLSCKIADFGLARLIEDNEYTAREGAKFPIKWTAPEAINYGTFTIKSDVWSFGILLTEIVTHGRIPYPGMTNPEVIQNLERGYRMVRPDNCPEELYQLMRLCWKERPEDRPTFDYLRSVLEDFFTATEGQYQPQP

| IC50 | SMILES |
| --- | --- |
| 20 µM | O=C(/C=C/c1ccc(O)c(O)c1)N[C@H](Cc1ccc(O)c(O)c1)C(=O)O |
| > 500 µM | COC(=O)[C@@H](Cc1ccc(O)c(O)c1)NC/C=C/c1ccc(O)c(O)c1 |
| 121 µM | COC(=O)[C@@H](Cc1ccc(O)c(O)c1)NC(=O)/C=C/c1ccc(O)c(O)c1 |
| 149 µM | COC(=O)[C@@H](Cc1ccc(O)c(O)c1)N(C)C(=O)/C=C/c1ccc(O)c(O)c1 |
| 98 µM | COC(=O)[C@@H](Cc1ccc(O)c(O)c1)NC(=O)NCc1ccc(O)c(O)c1 |
| 24 µM | O=C(/C=C/c1ccc(O)c(O)c1)O[C@H](Cc1ccc(O)c(O)c1)C(=O)O [ROSMARINIC ACID] |
| 162 µM | COC(=O)[C@@H](Cc1ccc(O)c(O)c1)/N=C(S)\C=C\c1ccc(O)c(O)c1 |
| 1.5 µM | CC[C@H](C)[C@H](NC(=O)[C@H](CCC(=O)O)NC(=O)[C@H](CCC(=O)O)NC(=O)[C@H](Cc1ccc(OP(=O)(O)O)cc1)NC(C)=O)C(=O)N[C@@H](CCC(=O)O)C(=O)O (Ac-[pY]EEIE-OH) |
